One molecule from patent US7705016B2, “Regulation of food intake by modulation of long-chain fatty acyl-CoA levels in the hypothalamus” (Albert Einstein College of Medicine of Yeshiva University, priority 2003, dated 2010) can be followed below.

In assay [1] the test system is male Sprague-Dawley (S-D) rats. The experiment in a line: Feeding behavior after ICV oleic acid bolus. Type of assay: in vivo, rat. The note with it: for decrease in food intake compared with pre-injection basal levels: SC animals. From the text: Animals and Experimental Design. Ten week-old male Sprague-Dawley (S-D) rats (Charles River Breeding Laboratories, Inc., Wilmington, Mass.) were housed in individual cages and subjected to a standard light dark cycle (0600-1800/1800-0600). At 14 days before the in vivo studies, all rats received implantations of ICV catheters by stereotaxic surgery as previously described (36). Rats were allowed to recover completely before initiation of all in vivo studies. Animals were fed a standard chow (SC, cat. no. 5001, Purina Mills Ltd, with 59% calories provided by carbohydrate, 28% by protein and 12% by fat, 3.3 kcal/g), a high sucrose (HS; animals were given free access to a 20% sucrose solution in addition to their standard chow diet), or a highly palatable high fat diet (HF, cat. no. 9389; Purina Mills Ltd., with 45% calories provided by carbohydrate, 22% by protein and 33% by fat, 5.32 kcal/g) which was designed by the supplementation of the SC diet with 10% lard. The lard contained 2% myristic acid, 24% palmitic acid, 13% stearic acid, 46% oleic acid, and 12% linoleic acid. The total composition of fats in the HF diet was 5.2% saturated, 6.2% monounsaturated, and 2.7% polyunsaturated fat by weight. The SC diet contained 1%, 1.5%, and 1.6% of saturated, monounsaturated, and polyunsaturated fats by weight, respectively. Five groups of animals ere included in the feeding and metabolic studies (described below) after three days on the following diet regimens (Table 2): 1) SC ad libitum (SC; ˜80 kcal/day); 2) HS ad libitum (HS; ˜95 kcal/day); 3) HF ad libitum (HF140; ˜140 kcal/day); 4) HF calorie restricted (HF55; ˜55 kcal/day); and 5) HF pair-fed to SC(HF80; ˜80 kcal/day). Central Delivery of OA. OA was complexed with the polymer hydroxypropyl-3-cyclodextrin (HPB, CTD Inc). […] OA was solubilized in 45% HPB to a final concentration of 17 mM. The HPB-OA solution was diluted in artificial cerebral spinal fluid (aCSF) to the appropriate concentration used for each ICV injections (30 or 300 nmol/5 μl). HPB alone at a similar concentration as in the OA studies was used in all vehicle control studies. Feeding Behavior Studies. This experimental protocol was designed to examine the acute effect of ICV OA on food intake in three experimental groups fed a standard chow (SC), a high sucrose diet (HS95) and a high fat diet (HF140). SC and HF140 animals were allowed to eat their diets ad libitum. HS animals were given free access to a 20% sucrose solution in addition to the standard chow diet for three days. Following three days of ad libitum feeding in all groups, on study day 0 (FIG. 5a), rats were given an ICV bolus injection of either […] of OA (30 nmol) or vehicle at a rate of 1 μl/min using a gas-tight syringe (Hamilton Corp) one hour before the start of the dark cycle. Food intake was measured at the same time daily for three days post-injection.

The next assay has as its system PEPCK mRNA. The experiment in a line: Hepatic PEPCK mRNA after ICV OA (northern blot). The note with it: either group (HF55, HF140). Type of assay: in vivo, rat. The protocol:
Northern Blot Analysis. Total RNA was isolated from hypothalami and liver with Trizol (Invitrogen Corp., California, USA). NPY, Glc-6-Pase or PEPCK expression was measured by northern blot analysis. Hypothalamic RNA was analyzed using probes for prepro-NPY and β-actin. To assess the effect of ICV OA on the expression of hepatic enzymes, total RNA was isolated from freeze-clamped liver tissues from rats subjected to insulin clamp studies. Glc-6-Pase and PEPCK cDNA were obtained as previously described (Combs et al., 2001; Massillon et al., 1996; 1998). Probes were labeled with [α-^32P] dCTP using a random primer kit (Stratagene). Quantification was performed by scanning densitometry, normalizing for β-actin signal and 18S ribosomal RNA to correct for loading variabilities. Effect of ICV OA on the hepatic expression of Glc-6-Pase and PEPCK. The potent effects of the central administration of OA on hepatic glucose fluxes prompted us to examine whether changes in the liver mRNA levels of key metabolic enzymes can partly account for these effects. Thus, we next measured the liver abundance of Glc-6-Pase and PEPCK mRNA as a function of 18S ribosomal RNA (FIG. 9d) or β-actin mRNA (not shown) in tissue samples obtained after ICV infusion of either OA or vehicle in caloric restricted and over-fed rats. […]

On to `CCCCCCCC/C=C\CCCCCCCC(=O)O` [OA, oleic acid], for which the “decrease in daily food intake” value in assay [1] (HF140, ICV OA 30 nmol, first day) is 11%; in assay [1] (HF140, ICV OA 30 nmol, second day), −2%; in assay [1] (HS95, ICV OA 30 nmol, first day), 21%; in assay [1] (HS95, ICV OA 30 nmol, second day) it was 17%. Further, the “decrease in food intake compared with pre-injection basal levels” value in assay [1] (ICV OA 30 nmol, first day) is 48%; in assay [1] (ICV OA 30 nmol, second day), 52%. Further, in assay [1] (all groups (SC, HS95, HF140)), the “return to baseline food intake after the OA injection” value was 3 days. Further, the “effect on feeding behavior” value in assay [1] (high fat chow) and in assay [1] (high sucrose chow) was “failed to significantly alter feeding behavior” in each case. In assay [1] (standard chow, ICV OA 30 nmol), the duration of anorexia came to 48 h. Further, in assay [1] (standard chow, for 2 days), the “decrease in food intake” value is listed as approximately 50%. Further, in the assay on PEPCK mRNA, the “liver expression of PEPCK” value was “failed to significantly alter”.
